# Source: ChEMBL document CHEMBL3880389, “Heterocyclic compounds as inhibitors of the sodium iodide symporter” (2014)
# Target: T1, Sodium/iodide cotransporter (Rattus norvegicus, UniProt Q63008)
# T1 sequence (Q63008 whole entry): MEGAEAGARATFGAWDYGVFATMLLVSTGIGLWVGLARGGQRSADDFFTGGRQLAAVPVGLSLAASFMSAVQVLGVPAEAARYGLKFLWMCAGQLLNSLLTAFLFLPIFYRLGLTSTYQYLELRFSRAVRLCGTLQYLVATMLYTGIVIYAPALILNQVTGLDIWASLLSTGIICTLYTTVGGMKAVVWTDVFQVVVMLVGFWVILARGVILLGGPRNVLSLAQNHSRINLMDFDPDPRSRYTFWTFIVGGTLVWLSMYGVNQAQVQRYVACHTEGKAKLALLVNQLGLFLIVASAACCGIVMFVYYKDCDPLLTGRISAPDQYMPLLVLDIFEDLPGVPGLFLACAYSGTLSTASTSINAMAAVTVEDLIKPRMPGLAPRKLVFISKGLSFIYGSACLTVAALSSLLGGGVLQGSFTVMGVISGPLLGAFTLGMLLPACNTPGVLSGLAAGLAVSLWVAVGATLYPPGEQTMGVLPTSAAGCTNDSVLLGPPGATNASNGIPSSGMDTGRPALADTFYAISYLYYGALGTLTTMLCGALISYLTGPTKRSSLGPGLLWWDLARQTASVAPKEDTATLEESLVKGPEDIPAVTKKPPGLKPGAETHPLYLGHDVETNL
# Assay: Inhibition of sodium iodide symporter in rat FRTL5 cells assessed as decrease in [125I]-sodium iodide uptake after 60 mins by scintillation counting method
# Format: cell-based, FRTL-5
row,IC50 [nM],Compound
1,400,Brc1cccc(C2NCCc3c2[nH]c2ccccc32)c1 (configuration not stated)
2,300,O=[N+]([O-])c1cccc(C2NCCc3c2[nH]c2ccccc32)c1 (configuration not stated)

# Target: T1, Sodium/iodide cotransporter
# Assay: Inhibition of sodium iodide symporter in rat FRTL5 cells assessed as decrease in sodium iodide uptake after 60 mins by scintillation counting method
# Format: cell-based, FRTL-5
row,Compound,IC50 [nM]
1,O=[N+]([O-])O,250000
2,N#CS [THIOCYANIC ACID],14000
3,F[B-](F)(F)F,750
4,[O-][Cl+3]([O-])([O-])O [PERCHLORATE],140
5,F[P-](F)(F)(F)(F)F.[Na+],9
